Activity calls are given as the source filed them.
Legend:
[1] = target: T1, Short transient receptor potential channel 4 (Mus musculus, UniProt Q9QUQ5); test: calcium entry via TRPC4 opening agents – cell-based, HEK293 TRPC4/mu-opioid, Fluo-4 calcium, dose response (AID 434937); assay type: functional
T1 sequence (Q9QUQ5 whole entry): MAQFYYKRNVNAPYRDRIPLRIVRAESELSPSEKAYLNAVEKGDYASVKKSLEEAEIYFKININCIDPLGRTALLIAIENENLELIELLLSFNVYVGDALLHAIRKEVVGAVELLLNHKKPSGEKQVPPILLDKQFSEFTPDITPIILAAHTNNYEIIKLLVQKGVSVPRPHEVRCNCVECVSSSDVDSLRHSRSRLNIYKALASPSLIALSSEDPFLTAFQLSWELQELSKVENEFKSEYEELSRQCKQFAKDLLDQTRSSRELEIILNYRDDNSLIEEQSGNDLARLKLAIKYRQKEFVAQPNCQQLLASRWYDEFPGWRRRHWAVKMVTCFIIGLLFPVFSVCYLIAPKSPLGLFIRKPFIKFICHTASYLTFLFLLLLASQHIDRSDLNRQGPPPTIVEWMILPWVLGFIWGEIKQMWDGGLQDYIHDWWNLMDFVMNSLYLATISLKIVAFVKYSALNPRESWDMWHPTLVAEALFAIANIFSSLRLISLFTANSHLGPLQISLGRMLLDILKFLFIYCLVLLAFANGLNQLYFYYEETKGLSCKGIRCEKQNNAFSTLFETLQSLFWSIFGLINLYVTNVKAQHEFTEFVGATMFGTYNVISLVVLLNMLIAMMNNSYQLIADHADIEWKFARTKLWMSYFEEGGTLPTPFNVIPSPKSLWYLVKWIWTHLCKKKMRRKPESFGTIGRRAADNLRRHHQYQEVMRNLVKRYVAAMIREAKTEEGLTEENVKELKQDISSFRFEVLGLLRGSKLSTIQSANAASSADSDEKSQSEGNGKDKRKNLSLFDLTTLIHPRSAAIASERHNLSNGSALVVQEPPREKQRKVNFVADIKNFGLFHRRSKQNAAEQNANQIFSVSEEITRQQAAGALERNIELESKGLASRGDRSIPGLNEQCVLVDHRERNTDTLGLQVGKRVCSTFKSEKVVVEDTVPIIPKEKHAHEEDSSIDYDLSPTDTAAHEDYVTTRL

[2] = target: T2, Cannabinoid receptor 1 (Homo sapiens, UniProt P21554); test: SAR analysis of antagonists of the Cannabinoid Receptor 1 using an Image-Based Assay - Set 4. [Related pubchem assays (depositor defined):AID2013, AID2026]; assay type: functional
T2 sequence (P21554 whole entry): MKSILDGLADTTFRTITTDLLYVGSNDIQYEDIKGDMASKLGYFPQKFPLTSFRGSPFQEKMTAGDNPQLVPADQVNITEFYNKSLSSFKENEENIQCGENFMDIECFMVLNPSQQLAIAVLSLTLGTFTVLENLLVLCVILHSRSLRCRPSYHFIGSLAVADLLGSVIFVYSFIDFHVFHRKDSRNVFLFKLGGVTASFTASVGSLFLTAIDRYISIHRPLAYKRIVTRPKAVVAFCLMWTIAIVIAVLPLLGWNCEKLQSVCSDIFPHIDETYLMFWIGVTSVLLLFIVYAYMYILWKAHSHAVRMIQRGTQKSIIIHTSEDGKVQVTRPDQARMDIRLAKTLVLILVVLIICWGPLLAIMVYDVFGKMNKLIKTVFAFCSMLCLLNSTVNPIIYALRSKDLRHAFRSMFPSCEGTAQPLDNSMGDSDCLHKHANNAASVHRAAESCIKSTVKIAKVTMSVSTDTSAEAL

[3] = target: T3, G-protein coupled receptor 35 (Homo sapiens, UniProt Q9HC97); test: SAR analysis of Agonists of the GPR35 Receptor using an Image-Based Assay - Set 4. [Related pubchem assays (depositor defined):AID2013, AID2026]; assay type: functional
T3 sequence (Q9HC97 whole entry): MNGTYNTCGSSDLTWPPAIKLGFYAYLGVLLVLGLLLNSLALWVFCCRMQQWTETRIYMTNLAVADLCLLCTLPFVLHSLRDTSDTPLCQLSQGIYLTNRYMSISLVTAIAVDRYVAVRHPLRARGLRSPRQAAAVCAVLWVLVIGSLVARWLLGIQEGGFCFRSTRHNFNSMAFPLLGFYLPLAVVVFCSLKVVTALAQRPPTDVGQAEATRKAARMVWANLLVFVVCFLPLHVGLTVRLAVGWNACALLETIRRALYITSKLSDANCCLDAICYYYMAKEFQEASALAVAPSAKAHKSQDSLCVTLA

[4] = target: T3, G-protein coupled receptor 35; test: SAR analysis of Antagonists of the GPR35 Receptor using an Image-Based Assay - Set 6. [Related pubchem assays (depositor defined):AID2013, AID2026]; assay type: functional
[5] = target: T2, Cannabinoid receptor 1; test: SAR analysis of agonists of the Cannabinoid Receptor 1 using an Image-Based Assay - Set 4. [Related pubchem assays (depositor defined):AID2013, AID2026]; assay type: functional
[6] = target: T4, Cannabinoid receptor 2 (Homo sapiens, UniProt P34972); test: SAR analysis of antagonists of the Cannabinoid Receptor 2 using an Image-Based Assay - Set 3. [Related pubchem assays (depositor defined):AID2013, AID2026]; assay type: functional
T4 sequence (P34972 whole entry): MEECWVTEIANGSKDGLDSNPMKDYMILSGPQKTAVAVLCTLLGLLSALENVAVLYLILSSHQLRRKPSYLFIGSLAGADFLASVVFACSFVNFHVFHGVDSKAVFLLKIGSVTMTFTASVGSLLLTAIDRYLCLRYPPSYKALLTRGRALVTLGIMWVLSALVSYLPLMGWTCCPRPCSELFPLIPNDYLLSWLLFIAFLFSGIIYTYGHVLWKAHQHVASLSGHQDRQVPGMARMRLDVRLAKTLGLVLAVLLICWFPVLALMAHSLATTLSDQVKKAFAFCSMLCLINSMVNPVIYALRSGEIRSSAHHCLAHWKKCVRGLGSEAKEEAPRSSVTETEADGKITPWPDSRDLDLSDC

[7] = target: T4, Cannabinoid receptor 2; test: SAR analysis of agonists of the Cannabinoid Receptor 2 using an Image-Based Assay - Set 3. [Related pubchem assays (depositor defined):AID2013, AID2026]; assay type: functional
[8] = target: G-protein coupled receptor 55 (Homo sapiens, UniProt Q9Y2T6); test: SAR Analysis of Selective Antagonists of GPR55 using an Image-Based Assay - Set 4. [Related pubchem assays (depositor defined):AID2013, AID2026]; assay type: functional;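 note: antagonism of response to 5 µM lysophosphatidylinositol agonist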
Sequence of G-protein coupled receptor 55 (Q9Y2T6 whole entry): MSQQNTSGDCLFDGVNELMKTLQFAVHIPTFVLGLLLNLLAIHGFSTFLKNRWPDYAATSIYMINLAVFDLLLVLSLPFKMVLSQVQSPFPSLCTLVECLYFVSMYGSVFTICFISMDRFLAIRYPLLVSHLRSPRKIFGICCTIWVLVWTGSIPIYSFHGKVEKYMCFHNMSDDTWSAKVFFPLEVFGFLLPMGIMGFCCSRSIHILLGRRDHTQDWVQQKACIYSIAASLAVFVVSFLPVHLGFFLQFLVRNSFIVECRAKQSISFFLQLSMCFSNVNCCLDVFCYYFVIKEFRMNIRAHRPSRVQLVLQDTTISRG

[9] = target: T5, Kappa-type opioid receptor (Homo sapiens, UniProt P41145); test: SAR analysis of small molecule antagonists of the kappa opioid receptor via a luminescent beta-arrestin assay - Set 5. [Related pubchem assays (depositor defined):AID1778, AID1785]; assay type: functional
T5 sequence (P41145 whole entry): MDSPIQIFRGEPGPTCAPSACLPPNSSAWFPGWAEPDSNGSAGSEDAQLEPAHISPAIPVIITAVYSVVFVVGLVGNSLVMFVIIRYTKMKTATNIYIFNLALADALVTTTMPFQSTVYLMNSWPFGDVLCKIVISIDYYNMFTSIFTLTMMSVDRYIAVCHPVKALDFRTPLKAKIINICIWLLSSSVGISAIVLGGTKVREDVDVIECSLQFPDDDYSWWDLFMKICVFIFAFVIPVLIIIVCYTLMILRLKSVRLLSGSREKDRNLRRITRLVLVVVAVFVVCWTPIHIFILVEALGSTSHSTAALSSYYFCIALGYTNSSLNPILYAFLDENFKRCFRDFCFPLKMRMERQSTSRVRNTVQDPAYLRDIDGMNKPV

[10] = target: T5, Kappa-type opioid receptor; test: SAR analysis of small molecule antagonists of the kappa opioid receptor via a luminescent beta-arrestin assay - Set 4. [Related pubchem assays (depositor defined):AID1777, AID1778, AID1785, AID1786, AID1966, AID2133, AID2136, AID2285]; assay type: functional
[11] = target: T6, Aminopeptidase N (Plasmodium falciparum FcB1/Columbia, UniProt O96935); test: malaria alanyl aminopeptidase activity blockers – biochemical, fluorogenic H-Leu-NHMec substrate, 1536-well (AID 1445); design: species or system Plasmodium falciparum 3D7, 3D7
T6 sequence (O96935 whole entry): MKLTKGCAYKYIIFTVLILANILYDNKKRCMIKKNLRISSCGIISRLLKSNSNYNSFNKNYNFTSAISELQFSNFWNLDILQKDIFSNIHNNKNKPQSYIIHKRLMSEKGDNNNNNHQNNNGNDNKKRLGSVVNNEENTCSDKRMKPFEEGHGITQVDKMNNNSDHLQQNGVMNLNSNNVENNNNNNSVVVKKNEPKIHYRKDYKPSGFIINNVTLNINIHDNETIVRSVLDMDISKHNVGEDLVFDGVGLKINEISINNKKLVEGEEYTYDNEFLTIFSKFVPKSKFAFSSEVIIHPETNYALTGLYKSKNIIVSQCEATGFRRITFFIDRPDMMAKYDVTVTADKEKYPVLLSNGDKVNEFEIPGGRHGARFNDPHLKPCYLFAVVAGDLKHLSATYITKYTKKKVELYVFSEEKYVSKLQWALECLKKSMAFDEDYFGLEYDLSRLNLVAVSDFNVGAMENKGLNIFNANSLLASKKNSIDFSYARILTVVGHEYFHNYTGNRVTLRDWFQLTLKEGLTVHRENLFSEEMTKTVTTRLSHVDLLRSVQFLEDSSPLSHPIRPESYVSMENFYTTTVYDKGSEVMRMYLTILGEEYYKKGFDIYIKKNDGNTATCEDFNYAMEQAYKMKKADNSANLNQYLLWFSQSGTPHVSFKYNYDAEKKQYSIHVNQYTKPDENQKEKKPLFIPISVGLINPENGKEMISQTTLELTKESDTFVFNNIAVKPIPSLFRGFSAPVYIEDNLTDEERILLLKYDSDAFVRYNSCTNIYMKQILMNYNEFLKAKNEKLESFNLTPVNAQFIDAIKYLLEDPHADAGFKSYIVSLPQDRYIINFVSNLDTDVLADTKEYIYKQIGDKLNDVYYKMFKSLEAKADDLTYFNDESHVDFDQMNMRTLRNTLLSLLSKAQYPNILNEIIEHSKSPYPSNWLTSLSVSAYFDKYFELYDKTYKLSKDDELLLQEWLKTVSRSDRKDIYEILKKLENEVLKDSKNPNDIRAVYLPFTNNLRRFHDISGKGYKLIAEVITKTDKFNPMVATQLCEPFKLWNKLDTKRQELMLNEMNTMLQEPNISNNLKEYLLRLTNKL

[12] = target: Mucolipin-3 (Homo sapiens, UniProt Q8TDD5); test: Fluorescence counterscreen assay for […] agonists: dose response cell-based high-throughput screening assay to identify agonists of the transient receptor potential channel ML3 (TRPML3). [Related pubchem assays: 1424, 1448 ]; assay type: functional
Sequence of Mucolipin-3 (Q8TDD5 whole entry): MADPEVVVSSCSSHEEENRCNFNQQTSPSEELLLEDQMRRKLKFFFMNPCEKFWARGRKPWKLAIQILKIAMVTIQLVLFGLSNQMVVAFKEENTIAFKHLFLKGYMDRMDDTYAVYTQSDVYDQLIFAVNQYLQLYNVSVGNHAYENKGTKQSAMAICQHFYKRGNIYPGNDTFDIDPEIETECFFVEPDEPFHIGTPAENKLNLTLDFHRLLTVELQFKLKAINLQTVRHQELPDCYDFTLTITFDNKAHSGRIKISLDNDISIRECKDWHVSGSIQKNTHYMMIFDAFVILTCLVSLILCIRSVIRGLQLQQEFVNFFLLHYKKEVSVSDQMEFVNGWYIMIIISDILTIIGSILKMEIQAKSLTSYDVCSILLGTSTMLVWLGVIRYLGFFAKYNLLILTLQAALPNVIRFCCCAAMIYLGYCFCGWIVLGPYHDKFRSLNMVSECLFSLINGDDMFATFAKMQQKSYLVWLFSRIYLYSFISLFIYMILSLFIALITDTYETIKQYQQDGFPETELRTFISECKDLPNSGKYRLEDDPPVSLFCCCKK

[13] = target: Dual specificity tyrosine-phosphorylation-regulated kinase 1A (Rattus norvegicus, UniProt Q63470); assay type: biochemical, Homo sapiens
[14] = target: Ion channel NompC (Danio rerio, UniProt Q7T1G6); test: Dose response cell-based high-throughput screening assay for agonists of the transient receptor potential channel N1 (TRPN1). [Related pubchem assays (depositor defined):AID1424, AID1448]; assay type: functional
Sequence of Ion channel NompC (Q7T1G6 whole entry): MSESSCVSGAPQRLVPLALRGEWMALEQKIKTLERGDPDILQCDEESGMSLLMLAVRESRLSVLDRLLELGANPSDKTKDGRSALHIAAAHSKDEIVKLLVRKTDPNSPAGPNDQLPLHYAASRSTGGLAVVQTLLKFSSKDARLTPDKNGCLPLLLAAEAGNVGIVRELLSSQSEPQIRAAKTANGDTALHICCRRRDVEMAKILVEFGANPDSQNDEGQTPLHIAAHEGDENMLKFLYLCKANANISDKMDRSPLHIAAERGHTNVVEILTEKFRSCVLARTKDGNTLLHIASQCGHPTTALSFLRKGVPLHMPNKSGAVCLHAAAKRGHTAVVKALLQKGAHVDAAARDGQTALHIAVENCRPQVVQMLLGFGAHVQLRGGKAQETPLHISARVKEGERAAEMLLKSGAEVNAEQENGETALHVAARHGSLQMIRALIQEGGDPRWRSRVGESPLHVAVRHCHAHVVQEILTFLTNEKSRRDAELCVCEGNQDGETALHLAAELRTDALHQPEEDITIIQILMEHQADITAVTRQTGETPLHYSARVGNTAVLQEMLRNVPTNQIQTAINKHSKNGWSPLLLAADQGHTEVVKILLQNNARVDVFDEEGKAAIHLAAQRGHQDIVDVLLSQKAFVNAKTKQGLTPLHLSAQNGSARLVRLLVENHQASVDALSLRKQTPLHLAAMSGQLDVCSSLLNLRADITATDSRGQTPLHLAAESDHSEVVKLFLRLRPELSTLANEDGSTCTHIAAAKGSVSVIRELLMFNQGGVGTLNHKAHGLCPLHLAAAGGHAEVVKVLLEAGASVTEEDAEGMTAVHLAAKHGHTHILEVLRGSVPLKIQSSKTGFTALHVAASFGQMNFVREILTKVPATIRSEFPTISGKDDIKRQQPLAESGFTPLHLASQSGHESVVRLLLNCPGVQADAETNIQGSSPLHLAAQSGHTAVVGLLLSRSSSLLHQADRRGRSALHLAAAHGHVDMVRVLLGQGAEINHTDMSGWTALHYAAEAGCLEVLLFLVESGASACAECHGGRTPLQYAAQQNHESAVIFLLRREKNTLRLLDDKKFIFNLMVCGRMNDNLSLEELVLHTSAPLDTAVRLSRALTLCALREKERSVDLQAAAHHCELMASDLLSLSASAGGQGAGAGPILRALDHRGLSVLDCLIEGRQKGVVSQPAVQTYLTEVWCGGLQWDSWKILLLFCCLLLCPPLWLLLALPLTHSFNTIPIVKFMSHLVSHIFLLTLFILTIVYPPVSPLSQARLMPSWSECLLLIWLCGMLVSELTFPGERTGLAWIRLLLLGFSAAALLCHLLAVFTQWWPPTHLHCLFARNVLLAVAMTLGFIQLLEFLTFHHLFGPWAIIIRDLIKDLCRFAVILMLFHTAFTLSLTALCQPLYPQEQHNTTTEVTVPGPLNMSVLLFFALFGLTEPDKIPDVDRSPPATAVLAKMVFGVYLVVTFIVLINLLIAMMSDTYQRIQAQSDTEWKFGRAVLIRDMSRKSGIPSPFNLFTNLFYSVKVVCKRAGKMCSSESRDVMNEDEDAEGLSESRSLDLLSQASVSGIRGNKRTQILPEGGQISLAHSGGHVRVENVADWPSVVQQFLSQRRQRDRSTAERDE

[15] = target: T7, Insulin-degrading enzyme (Homo sapiens, UniProt P14735); test: Dose Response: Fluorescence polarization-based cell-based high throughput dose response assay for inhibitors of insulin-degrading enzyme (IDE). [Related pubchem assays: 434962 (Primary screen (IDE inhibitors in singlicate)), 449730 (Counterscreen (Cytotoxicity in triplicate)), 435028 (Confirmation (IDE inhibitors in triplicate)), 434984 (Summary …; assay type: functional
T7 sequence (P14735 whole entry): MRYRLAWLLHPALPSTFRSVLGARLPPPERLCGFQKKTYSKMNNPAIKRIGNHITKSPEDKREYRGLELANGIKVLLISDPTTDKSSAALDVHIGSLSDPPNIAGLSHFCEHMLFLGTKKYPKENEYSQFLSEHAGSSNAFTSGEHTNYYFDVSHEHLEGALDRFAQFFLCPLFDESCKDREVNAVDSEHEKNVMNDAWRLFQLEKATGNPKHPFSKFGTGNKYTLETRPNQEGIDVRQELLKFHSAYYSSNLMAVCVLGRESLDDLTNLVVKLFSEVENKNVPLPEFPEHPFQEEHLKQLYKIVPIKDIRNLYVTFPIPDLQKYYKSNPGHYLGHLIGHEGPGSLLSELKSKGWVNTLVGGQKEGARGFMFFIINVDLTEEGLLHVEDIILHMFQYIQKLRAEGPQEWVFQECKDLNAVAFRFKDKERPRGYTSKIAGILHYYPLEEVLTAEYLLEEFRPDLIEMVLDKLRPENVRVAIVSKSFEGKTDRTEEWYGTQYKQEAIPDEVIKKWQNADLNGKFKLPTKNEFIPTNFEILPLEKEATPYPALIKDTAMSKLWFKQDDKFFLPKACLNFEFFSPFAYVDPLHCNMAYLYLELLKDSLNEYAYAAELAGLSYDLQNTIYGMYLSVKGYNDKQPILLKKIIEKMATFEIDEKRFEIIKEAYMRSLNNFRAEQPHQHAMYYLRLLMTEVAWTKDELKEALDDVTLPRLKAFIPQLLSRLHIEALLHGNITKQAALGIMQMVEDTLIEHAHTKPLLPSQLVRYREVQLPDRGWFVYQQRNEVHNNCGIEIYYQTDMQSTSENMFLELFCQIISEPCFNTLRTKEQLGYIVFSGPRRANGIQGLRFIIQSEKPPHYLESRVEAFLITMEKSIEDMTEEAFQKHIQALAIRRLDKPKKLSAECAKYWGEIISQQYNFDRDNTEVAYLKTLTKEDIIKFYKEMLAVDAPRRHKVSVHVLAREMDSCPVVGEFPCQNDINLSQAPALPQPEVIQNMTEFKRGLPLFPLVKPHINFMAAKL

[16] = Counterscreen for IDE inhibitors: Luminescence-based cell-based high throughput dose response assay to identify compounds that are cytotoxic to HEK cells. [Related pubchem assays: 434962 (Primary screen (IDE inhibitors in singlicate)), 449730 (Counterscreen (Cytotoxicity in triplicate)), 435028 (Confirmation (IDE inhibitors in triplicate)) …; assay type: functional; conditions: HEK293

IC50 [2]	EC50 [3]	IC50 [4]	EC50 [5]	IC50 [6]	EC50 [7]	IC50 [8]	SMILES	also measured
–	–	–	–	–	–	–	O=C(Cn1c(-c2ccccc2)c[n+]2ccsc12)c1ccc(Br)cc1	EC50 [1]: 0.668 µM (active)
7.11 µM (active)	> 32 µM (inactive)	> 32 µM (inactive)	> 32 µM (inactive)	> 32 µM (inactive)	> 32 µM (inactive)	9.55 µM (active)	COc1ccc(C2(C(=O)N3CCC(n4nc(-c5ccccc5)oc4=O)CC3)CC2)cc1	–
–	–	–	–	–	–	–	CC(C)N(CCNC(=O)c1ccc(CNS(=O)(=O)Cc2ccccc2)cc1)Cc1ccccc1	IC50 [9]: 3.5 µM (active); IC50 [10]: 10.3 µM (inactive)
–	–	–	–	–	–	–	O=C(O)c1cccc(-c2ccc(/C=N/Nc3ccc([N+](=O)[O-])cc3)o2)c1	IC50 [11]: 27.3 µM (active); EC50 [12]: > 29.9 µM (not active); AC50 [13]: 6.38 µM (active); EC50 [14]: 12 µM (inactive); IC50 [15]: > 55.9 µM (not active); IC50 [16]: > 55.6 µM (not active)
19.6 µM (inactive)	> 32 µM (inactive)	> 32 µM (inactive)	> 32 µM (inactive)	> 32 µM (inactive)	26.8 µM (inactive)	> 32 µM (inactive)	Cc1nc(N2CCN(C(=O)c3ccc4c(c3)nc(C)n4C)CC2)c2c3c(sc2n1)CC(C)CC3 (stereo not drawn)	–

Source: ChEMBL document CHEMBL1201862, “PubChem BioAssay data set” (2004)
